Measured values as given in US7629366B2, “Aminoalcohol derivatives” (Fujisawa Pharmaceutical Co., Ltd., priority 2002, dated 2009).

System: increase in intravesical pressure induced by carbachol in anesthetized dog
Assay: Effect on the increase in intravesical pressure induced by carbachol in anesthetized dog
Format: in vivo
Conditions: 0.032 mg/kg intravenously, 30 minutes before carbachol (1.8 μg/kg); female Beagle dogs under halothane anesthesia
Method: Effect on the increase in intravesical pressure induced by carbachol in anesthetized dog
Female Beagle dogs weighing 8.0-15.0 kg were fasted for 24 hours and maintained under halothane anesthesia. A 12F Foley catheter was lubricated with water soluble jelly, inserted into the urethral orifice and advanced approximately 10 cm until the balloon tip was placed well inside the bladder. The balloon was then inflated with 5 ml of room air and catheter slowly withdrawn just part the first resistance that is felt at the bladder neck. Urine was completely drained out through the catheter, and 30 ml of biological saline was infused. The catheter was connected to pressure transducer, and intravesical pressure (IVP) was continuously recorded. The test compound was administered intravenously at 30 minutes before the administration of carbachol (1.8 μg/kg). Percent inhibition of IVP increase by test compound was calculated by dividing IVPa (IVP increase induced by carbachol after test compound administration) by IVPb (IVP increase induced by carbachol just before test compound administration).

Row | Structure (SMILES) | Percent inhibition of IVP increase [%]
1 | COc1cc(-c2ccc(C[C@@H](C)NC[C@H](O)c3cccnc3)cc2)ccc1C(=O)O.Cl.Cl [Test Compound (4), 4′-[(2R)-2-[[(2R)-2-Hydroxy-2-(3-pyridyl)ethyl]amino]-propyl]-3-methoxy-1,1′-biphenyl-4-carboxylic acid dihydrochloride] | 96
2 | COc1cc(-c2ccc(C[C@@H](C)NC[C@H](O)c3ccccc3)cc2)ccc1C(=O)O.Cl [Test Compound (1), 4′-[(2R)-2-[[(2R)-2-Phenyl-2-hydroxyethyl]amino]-propyl]-3-methoxy-1,1′-biphenyl-4-carboxylic acid hydrochloride] | 93
3 | Cc1cc(C(=O)O)ccc1-c1ccc(CCNC[C@H](O)c2cccnc2)cc1.Cl.Cl [Test Compound (3), 4′-[2-[[(2R)-2-Hydroxy-2-(3-pyridyl)ethyl]amino]ethyl]-2-methyl-1,1′-biphenyl-4-carboxylic acid dihydrochloride] | 86
4 | Cc1c(C(=O)O)ccc(-c2ccc(CCNC[C@H](O)c3cccc(Cl)c3)cc2)c1C.Cl [Test Compound (2), 4′-[2-[[(2R)-2-(3-Chlorophenyl)-2-hydroxyethyl]amino]-ethyl]-2,3-dimethyl-1,1′-biphenyl-4-carboxylic acid hydrochloride] | 91
